Data published in patent US12686679B2, “Crystals of alkynyl-containing compound, salt and solvate thereof, preparation method, and applications” (GUANGZHOU HEALTHQUEST PHARMA CO., LTD., priority 2020, dated 2026).

What was measured:
Format in all cases: physicochemical
[1] = Stability test of crystal form II (different temperature and humidity)
[2] = Suspension stirring experiment of crystal form II (stability in different solvents); settings: for Room temperature suspension (solid form) / 50° C. suspension (solid form): stirred 3-4 days
Protocol: (§1) Using X-ray powder diffractometer (Brooke D8 advance or D2 Phase) was used to characterize the solid. • Scanning angle: […]-40 (2θ). • Step size: 0.02° (2θ). • Scan speed: 0.3 sec/step (D8), 0.2 sec/step (D2). • Light tube voltage: 40 KV (D8), 30 KV (D2). • Light tube current: 40 mA (D8), 10 mA (D2). • Rotation: On. • Sample tray: zero background sample tray. TGA
The resulting suspension is stirred at room temperature and 50° C. for 3-4 days, then filtered and collected the solid. After vacuum drying at room temperature, the solid was characterized.

[3] = Hygroscopicity study of crystal form II, dynamic moisture adsorption (DVS); settings: for DVS (90% RH): moisture absorption at 90% relative humidity (RH), 25° C.
Protocol: (§2) DVS analysis of solids using IGASORP dynamic water adsorption instrument. • temperature: 25° C. • airflow: 250 mL/min. • Scan loop: 2. • Minimum test time: 30 min. • Longest test time: 2 h. • Waiting for balance: 98%. PLM
The crystalline form II prepared in Example 21 was used to conduct a moisture absorption study, and about 10 mg of crystalline form II was taken for a dynamic moisture adsorption (DVS) test. The conclusions are described in Table 24 below

[4] = Suspension stirring experiment of crystal form I (stability in different solvents); settings: for 50° C. suspension (solid form) / Room temperature suspension (solid form): stirred 3 days
Protocol: as §1
Weigh the sample crystal form I and place it in a sample bottle, and then add a solvent to prepare a suspension. The resulting suspension is stirred at room temperature and 50° C. for 3 days, then filtered and collected the solid, and the solid is characterized.

[5] = Stability test of crystal form I (different temperature, humidity and light)
Protocol: as §1
The stability of the crystal form I prepared in Examples 1-13 was studied. Before the test, the single impurities of the crystal form I were less than 0.05%, and the total impurities were less than 0.05%.
Place the crystal form I under 60° C., high humidity, and light conditions, and sample at 0 days/5 days/10 days to investigate its content and related substances. The lighting conditions are: total illuminance: ≥1.2×106 Lux·hr, near ultraviolet energy ≥200 w·hr/m2.

[6] = Hygroscopicity test of crystal form I, dynamic moisture adsorption (DVS)
Protocol: as §2
The hygroscopicity of the crystal form I prepared in Examples 1-13 was studied, and 10 mg of the crystal form I was taken for a dynamic moisture adsorption (DVS) test.

[7] = 0 day (before the test), listed as crystal form II
[8] = 60° C. and high humidity in 5 and 10 days
[9] = 0 day (before the test), listed as Form I
[10] = 0 day (before the test), listed as crystal form I
[11] = 60° C., high humidity and light conditions on 5 and 10 days

Cc1ccc(C(=O)Nc2ccc(CN3CCN(C)CC3)c(C(F)(F)F)c2)cc1C#Cc1cnc2[nH]ncc2c1.O=C(O)/C=C/C(=O)O [Crystal form II, 3-((1H-pyrazolo[3,4-b]pyridin-5-yl)ethynyl)-4-methyl-N-(4-((4-methylpiperazine-1-yl)methyl)-3-(trifluoromethyl)phenyl) benzamide fumarate]
XPRD ([1]; 0 day): Crystal Form II
content ([1]; 0 day): 98.7%
Single impurity ([1]; 0 day (before the test)): <0.05%
Total impurities ([1]; 0 day (before the test)): <0.05%
Single impurity [1, 7]: less than 0.05%
Total impurities [1, 7]: less than 0.05%
The content (single impurity) [1, 8]: less than 0.05
content [1, 8]: ≥ 98.5%
total impurity content [1, 8]: less than 0.05
stability (conclusion) ([1]; 60° C. and high humidity, 5 and 10 days): good stability
Single impurity ([1]; 5 days-60° C.): <0.05%
Total impurities ([1]; 5 days-60° C.): <0.05%
XPRD ([1]; 5 days-60° C.): Crystal Form II
content ([1]; 5 days-60° C.): 99.5%
Single impurity ([1]; 5 days-high (high humidity)): <0.05%
Total impurities ([1]; 5 days-high (high humidity)): <0.05%
XPRD ([1]; 5 days-high (high humidity)): Crystal Form II
content ([1]; 5 days-high (high humidity)): 99.4%
Single impurity ([1]; 10 days-60° C.): <0.05%
Total impurities ([1]; 10 days-60° C.): <0.05%
XPRD ([1]; 10 days-60° C.): Crystal Form II
content ([1]; 10 days-60° C.): 99.2%
Single impurity ([1]; 10 days-high (high humidity)): <0.05%
Total impurities ([1]; 10 days-high (high humidity)): <0.05%
XPRD ([1]; 10 days-high (high humidity)): Crystal Form II
content ([1]; 10 days-high (high humidity)): 99.0%
Room temperature suspension (solid form) ([2]; 1,4-dioxane): Crystal Form II
50° C. suspension (solid form) ([2]; Acetone:water 1:2 (v:v)): Crystal Form XIV
50° C. suspension (solid form) ([2]; Acetonitrile): Crystal Form II
Room temperature suspension (solid form) ([2]; Acetonitrile): Crystal Form II
50° C. suspension (solid form) ([2]; Ethyl acetate): Crystal Form II
Room temperature suspension (solid form) ([2]; Ethyl acetate): Crystal Form II
50° C. suspension (solid form) ([2]; Isopropanol): Crystal Form II
Room temperature suspension (solid form) ([2]; Isopropanol): Crystal Form II
Room temperature suspension (solid form) ([2]; Isopropyl acetate): Crystal Form II
Room temperature suspension (solid form) ([2]; Methanol:water 3:1 (v:v)): Crystal Form II
Room temperature suspension (solid form) ([2]; N-heptane): Crystal Form II
50° C. suspension (solid form) ([2]; Tetrahydrofuran): Crystal Form II
Room temperature suspension (solid form) ([2]; Tetrahydrofuran): Crystal Form II
50° C. suspension (solid form) ([2]; ethanol): Crystal Form II
Room temperature suspension (solid form) ([2]; ethanol): Crystal Form II
50° C. suspension (solid form) ([2]; methanol): Crystal Form II
Room temperature suspension (solid form) ([2]; methanol): Crystal Form II
stability at room temperature and 50° C. (conclusion) ([2]; suspension stirring in solvents): good stability
hygroscopicity (conclusion) ([3]; during storage): not easy to absorb water
XRPD before and after DVS ([3]; listed as Crystal Form II): Unchanged
XRPD before and after DVS ([3]; listed as crystal form II): has not changed
DVS (90% RH) ([3]; listed as Crystal Form II): 1.66%
DVS (90% RH) ([3]; listed as crystal form II): 1.66%

Cc1ccc(C(=O)Nc2ccc(CN3CCN(C)CC3)c(C(F)(F)F)c2)cc1C#Cc1cnc2[nH]ncc2c1 [Crystal form I, 3-((1H-pyrazolo[3,4-b]pyridin-5-yl)ethynyl)-4-methyl-N-(4-((4-methylpiperazine-1-yl)methyl)-3-(trifluoromethyl)phenyl) benzamide]
50° C. suspension (solid form) ([4]; Acetone): Form I
Room temperature suspension (solid form) ([4]; Acetone): Form I
50° C. suspension (solid form) ([4]; Acetonitrile): Form I
Room temperature suspension (solid form) ([4]; Acetonitrile): Form I
50° C. suspension (solid form) ([4]; Acetonitrile:water 1:1 (v:v)): Form I
Room temperature suspension (solid form) ([4]; Acetonitrile:water 1:1 (v:v)): Form I
50° C. suspension (solid form) ([4]; Butanone): Form I
Room temperature suspension (solid form) ([4]; Butanone): Form I
50° C. suspension (solid form) ([4]; Ethanol): Form I
Room temperature suspension (solid form) ([4]; Ethanol): Form I
50° C. suspension (solid form) ([4]; Ethyl acetate): Form I
Room temperature suspension (solid form) ([4]; Ethyl acetate): Form I
50° C. suspension (solid form) ([4]; Isopropanol): Form I
Room temperature suspension (solid form) ([4]; Isopropanol): Form I
50° C. suspension (solid form) ([4]; Isopropyl acetate): Form I
Room temperature suspension (solid form) ([4]; Isopropyl acetate): Form I
50° C. suspension (solid form) ([4]; Methanol): Form I
Room temperature suspension (solid form) ([4]; Methanol): Form I
50° C. suspension (solid form) ([4]; Methyl tert-butyl ether): Form I
Room temperature suspension (solid form) ([4]; Methyl tert-butyl ether): Form I
stability in a variety of solvents (conclusion) ([4]; suspension stirring, room temperature and 50° C.): good stability
XPRD ([5]; 0 day): Form I
content ([5]; 0 day): 101.2%
Single impurity [5, 9]: <0.05%
Total impurities [5, 9]: <0.05%
Single impurity [5, 10]: less than 0.05%
Total impurities [5, 10]: less than 0.05%
content [5, 11]: ~100%
single impurity content [5, 11]: less than 0.05%
total impurity content [5, 11]: less than 0.05%
stability (conclusion) ([5]; 60° C., high humidity and light conditions, 5 and 10 days): good stability
Single impurity ([5]; 5 days-60° C.): <0.05%
Total impurities ([5]; 5 days-60° C.): <0.05%
XPRD ([5]; 5 days-60° C.): Form I
content ([5]; 5 days-60° C.): 100.8%
Single impurity ([5]; 5 days-high humidity): <0.05%
Total impurities ([5]; 5 days-high humidity): <0.05%
XPRD ([5]; 5 days-high humidity): Form I
content ([5]; 5 days-high humidity): 101.4%
Single impurity ([5]; 5 days-light): <0.05%
Total impurities ([5]; 5 days-light): <0.05%
XPRD ([5]; 5 days-light): Form I
content ([5]; 5 days-light): 101.5%
Single impurity ([5]; 10 days-60° C.): <0.05%
Total impurities ([5]; 10 days-60° C.): <0.05%
XPRD ([5]; 10 days-60° C.): Form I
content ([5]; 10 days-60° C.): 100.8%
Single impurity ([5]; 10 days-high humidity): <0.05%
Total impurities ([5]; 10 days-high humidity): <0.05%
XPRD ([5]; 10 days-high humidity): Form I
content ([5]; 10 days-high humidity): 100.9%
Single impurity ([5]; 10 days-light): <0.05%
Total impurities ([5]; 10 days-light): <0.05%
XPRD ([5]; 10 days-light): Form I
content ([5]; 10 days-light): 100.4%
DVS (90% RH) ([6]; 90% RH, 25° C.): 0.12%
DVS XRPD ([6]; XRPD after DVS): Unchanged
hygroscopicity (conclusion) ([6]; during storage): not easy to absorb water
